Source: PubChem BioAssay AID1259407 (Chemical Carcinogenesis Research Information System (CCRIS), 2018)
Active and inactive are the calls of the source. No rule for the calls is given here.

Test system: CCRIS mutagenicity, Ames/micronucleus/aberration tests
Experiment: CCRIS mutagenicity studies
[1] = Test System: AMES SALMONELLA TYPHIMURIUM, Strain/Indicator: TA98, Metabolic Activation: NONE, Method: STANDARD PLATE
[2] = Test System: AMES SALMONELLA TYPHIMURIUM, Strain/Indicator: TA100, Metabolic Activation: NONE, Method: STANDARD PLATE
[3] = Test System: AMES SALMONELLA TYPHIMURIUM, Strain/Indicator: TA1535, Metabolic Activation: NONE, Method: STANDARD PLATE
[4] = Test System: AMES SALMONELLA TYPHIMURIUM, Strain/Indicator: TA98, Metabolic Activation: NONE, Method: PREINCUBATION
[5] = Test System: AMES SALMONELLA TYPHIMURIUM, Strain/Indicator: TA100, Metabolic Activation: NONE, Method: PREINCUBATION
[6] = Test System: AMES SALMONELLA TYPHIMURIUM, Strain/Indicator: TA98, Metabolic Activation: RAT, LIVER, S-9, AROCLOR 1254, Method: STANDARD PLATE

CCN(CCCl)c1ccc(OCCCCCNc2c3ccccc3nc3ccccc23)cc1
mutagenic call (Test System: AMES SALMONELLA TYPHIMURIUM, Strain/Indicator: DG1588, Metabolic Activation: NONE, Method: STANDARD PLATE): inactive; negative
mutagenic call (Test System: AMES SALMONELLA TYPHIMURIUM, Strain/Indicator: DG1592, Metabolic Activation: NONE, Method: STANDARD PLATE): inactive; negative
mutagenic call (Test System: AMES SALMONELLA TYPHIMURIUM, Strain/Indicator: DG1593, Metabolic Activation: NONE, Method: STANDARD PLATE): active; positive
mutagenic call [1]: active; positive
mutagenic call [2]: active; positive
mutagenic call (Test System: AMES SALMONELLA TYPHIMURIUM, Strain/Indicator: TA102, Metabolic Activation: NONE, Method: STANDARD PLATE): inactive; negative
mutagenic call (Test System: AMES SALMONELLA TYPHIMURIUM, Strain/Indicator: TA104, Metabolic Activation: NONE, Method: STANDARD PLATE): inactive; negative
mutagenic call [3]: inactive; negative
mutagenic call (Test System: AMES SALMONELLA TYPHIMURIUM, Strain/Indicator: TA1537 (PKM101), Metabolic Activation: NONE, Method: STANDARD PLATE): active; positive
mutagenic call (Test System: AMES SALMONELLA TYPHIMURIUM, Strain/Indicator: TA1537, Metabolic Activation: NONE, Method: STANDARD PLATE): active; positive
mutagenic call (Test System: AMES SALMONELLA TYPHIMURIUM, Strain/Indicator: TA1538, Metabolic Activation: NONE, Method: STANDARD PLATE): inactive; negative
mutagenic call (Test System: AMES SALMONELLA TYPHIMURIUM, Strain/Indicator: TA1975 (PKM101), Metabolic Activation: NONE, Method: STANDARD PLATE): inactive; negative
mutagenic call (Test System: AMES SALMONELLA TYPHIMURIUM, Strain/Indicator: TA1975, Metabolic Activation: NONE, Method: STANDARD PLATE): inactive; negative
mutagenic call (Test System: AMES SALMONELLA TYPHIMURIUM, Strain/Indicator: TA1977, Metabolic Activation: NONE, Method: STANDARD PLATE): active; positive
mutagenic call (Test System: AMES SALMONELLA TYPHIMURIUM, Strain/Indicator: TA1978 (PKM101), Metabolic Activation: NONE, Method: STANDARD PLATE): active; positive
mutagenic call (Test System: AMES SALMONELLA TYPHIMURIUM, Strain/Indicator: TA1978, Metabolic Activation: NONE, Method: STANDARD PLATE): inactive; negative
mutagenic call (Test System: AMES SALMONELLA TYPHIMURIUM, Strain/Indicator: TA4001, Metabolic Activation: NONE, Method: STANDARD PLATE): active; positive
mutagenic call (Test System: AMES SALMONELLA TYPHIMURIUM, Strain/Indicator: TA4006, Metabolic Activation: NONE, Method: STANDARD PLATE): inactive; negative

Nc1ccc(I)cc1
mutagenic call (End Point: IN VITRO MICRONUCLEUS, Test System: CHL/IU CELLS, Metabolic Activation: RAT, LIVER, S-9, PHENOBARBITAL AND 5,6-BENZOFLAVONE): inactive; negative

CC(C)(C)CC(C)(C)c1ccc(OCCO)cc1
mutagenic call (Test System: MOUSE LYMPHOMA, Strain/Indicator: L5178Y (TK+/TK-), Metabolic Activation: NONE, Method: SUSPENSION/PLATE): inactive; negative

Nc1cccc2cccnc12
mutagenic call [4]: active; positive
mutagenic call (Test System: AMES SALMONELLA TYPHIMURIUM, Strain/Indicator: TA98, Metabolic Activation: RAT, LIVER, S-9, KANECHLOR 500 OR PHENOBARBITAL AND BETA-NAPHTHOFLAVONE, Method: PREINCUBATION): active; positive
mutagenic call [5]: active; positive
mutagenic call (Test System: AMES SALMONELLA TYPHIMURIUM, Strain/Indicator: TA100, Metabolic Activation: RAT, LIVER, S-9, KANECHLOR 500 OR PHENOBARBITAL AND BETA-NAPHTHOFLAVONE, Method: PREINCUBATION): active; positive
mutagenic call (Test System: AMES SALMONELLA TYPHIMURIUM, Strain/Indicator: TA100, Metabolic Activation: S-9, Method: PREINCUBATION): active; positive

CN(C)/C=N/c1nnc(/C=C/c2ccc([N+](=O)[O-])o2)o1
mutagenic call (Test System: AMES SALMONELLA TYPHIMURIUM, Strain/Indicator: TA100, Metabolic Activation: RAT, LIVER, S-9, KC500 OR PHENOBARBITAL, Method: LIQUID SUSPENSION): active; positive

CN(Cc1ccc(F)cc1)N=O
mutagenic call (Test System: AMES SALMONELLA TYPHIMURIUM, Strain/Indicator: TA1535, Metabolic Activation: HAMSTER, LIVER, S-9, AROCLOR 1254, Method: STANDARD PLATE): active; positive
mutagenic call [3]: inactive; negative

NC(=O)CCC(=O)Nc1ccc(Cl)cc1
mutagenic call [1]: inactive; negative
mutagenic call [6]: inactive; negative
mutagenic call [2]: inactive; negative
mutagenic call (Test System: AMES SALMONELLA TYPHIMURIUM, Strain/Indicator: TA100, Metabolic Activation: RAT, LIVER, S-9, AROCLOR 1254, Method: STANDARD PLATE): inactive; negative

Cc1c2ccccc2c(COS(=O)(=O)O)c2ccccc12
mutagenic call [4]: active; positive

OC1CCCCC1
mutagenic call (Test System: AMES SALMONELLA TYPHIMURIUM, Strain/Indicator: TA98, Metabolic Activation: HAMSTER, LIVER, S-9, AROCLOR 1254, Method: PREINCUBATION): inactive; negative
mutagenic call [4]: inactive; negative
mutagenic call (Test System: AMES SALMONELLA TYPHIMURIUM, Strain/Indicator: TA98, Metabolic Activation: RAT, LIVER, S-9, AROCLOR 1254, Method: PREINCUBATION): inactive; negative
mutagenic call (Test System: AMES SALMONELLA TYPHIMURIUM, Strain/Indicator: TA100, Metabolic Activation: HAMSTER, LIVER, S-9, AROCLOR 1254, Method: PREINCUBATION): inactive; negative
mutagenic call [5]: inactive; negative
mutagenic call (Test System: AMES SALMONELLA TYPHIMURIUM, Strain/Indicator: TA100, Metabolic Activation: RAT, LIVER, S-9, AROCLOR 1254, Method: PREINCUBATION): inactive; negative
mutagenic call (Test System: AMES SALMONELLA TYPHIMURIUM, Strain/Indicator: TA1535, Metabolic Activation: HAMSTER, LIVER, S-9, AROCLOR 1254, Method: PREINCUBATION): inactive; negative
mutagenic call (Test System: AMES SALMONELLA TYPHIMURIUM, Strain/Indicator: TA1535, Metabolic Activation: NONE, Method: PREINCUBATION): inactive; negative
mutagenic call (Test System: AMES SALMONELLA TYPHIMURIUM, Strain/Indicator: TA1535, Metabolic Activation: RAT, LIVER, S-9, AROCLOR 1254, Method: PREINCUBATION): inactive; negative
mutagenic call (Test System: AMES SALMONELLA TYPHIMURIUM, Strain/Indicator: TA1537, Metabolic Activation: HAMSTER, LIVER, S-9, AROCLOR 1254, Method: PREINCUBATION): inactive; negative
mutagenic call (Test System: AMES SALMONELLA TYPHIMURIUM, Strain/Indicator: TA1537, Metabolic Activation: NONE, Method: PREINCUBATION): inactive; negative
mutagenic call (Test System: AMES SALMONELLA TYPHIMURIUM, Strain/Indicator: TA1537, Metabolic Activation: RAT, LIVER, S-9, AROCLOR 1254, Method: PREINCUBATION): inactive; negative

O=[N+]([O-])c1ccc2[nH]c3ccc([N+](=O)[O-])cc3c2c1
mutagenic call (Test System: AMES SALMONELLA TYPHIMURIUM, Strain/Indicator: TA98(NR), Metabolic Activation: NONE, Method: STANDARD PLATE): active; positive
mutagenic call (Test System: AMES SALMONELLA TYPHIMURIUM, Strain/Indicator: TA98(NR), Metabolic Activation: RAT, LIVER, S-9, AROCLOR 1254, Method: STANDARD PLATE): active; positive
mutagenic call [1]: active; positive
mutagenic call [6]: active; positive

CC(=O)N(C(C)=O)c1cc(N=Nc2ccc(C)cc2)ccc1C
mutagenic call (Test System: AMES SALMONELLA TYPHIMURIUM, Strain/Indicator: TA98, Metabolic Activation: NONE, Method: SUSPENSION/PLATE): inactive; negative
mutagenic call (Test System: AMES SALMONELLA TYPHIMURIUM, Strain/Indicator: TA98, Metabolic Activation: RAT, LIVER, S-9, PHENOBARBITAL AND 5,6-BENZOFLAVONE, Method: SUSPENSION/PLATE): inactive; negative
mutagenic call (Test System: AMES SALMONELLA TYPHIMURIUM, Strain/Indicator: TA100, Metabolic Activation: NONE, Method: SUSPENSION/PLATE): inactive; negative
mutagenic call (Test System: AMES SALMONELLA TYPHIMURIUM, Strain/Indicator: TA100, Metabolic Activation: RAT, LIVER, S-9, PHENOBARBITAL AND 5,6-BENZOFLAVONE, Method: SUSPENSION/PLATE): inactive; negative

O=C(Nc1ccc(Cl)cc1)c1csc([N+](=O)[O-])c1
mutagenic call [1]: active; positive
mutagenic call [2]: active; positive

COc1ccc(/C(=C/C(=O)N2CCOCC2)c2ccc(F)cc2)cc1OC
mutagenic call (End Point: IN VITRO CHROMOSOMAL ABERRATIONS, Test System: CHINESE HAMSTER LUNG (CHL) CELLS, Metabolic Activation: NONE): inactive; negative
mutagenic call (End Point: IN VITRO CHROMOSOMAL ABERRATIONS, Test System: CHINESE HAMSTER LUNG (CHL) CELLS, Metabolic Activation: S-9): active; positive (structural changes)

Fc1cc(F)c2ncccc2c1
mutagenic call (Test System: AMES SALMONELLA TYPHIMURIUM, Strain/Indicator: TA100, Metabolic Activation: RAT LIVER S-9, PHENOBARBITAL AND 5,6-BENZOFLAVONE, Method: PREINCUBATION): active; positive

CC(=O)c1cccc2c1OC1(C)OOC21C (centres undefined)
mutagenic call [5]: active; positive
